For the assay, the target named is Beta-2 adrenergic receptor (Homo sapiens, UniProt P07550). The assay can be described thus: Binding affinity to immobilized Halo tag-fused beta2 adrenoceptor (unknown origin) expressed in Escherichia coli BL21 (DE3) assessed as dissociation rate constant by receptor chromatography.

The results in this text go back to BindingDB's records for PubMed 35227979 (Northwest University, 2022).

Chain of Beta-2 adrenergic receptor (P07550 whole entry, the tested form may be a part): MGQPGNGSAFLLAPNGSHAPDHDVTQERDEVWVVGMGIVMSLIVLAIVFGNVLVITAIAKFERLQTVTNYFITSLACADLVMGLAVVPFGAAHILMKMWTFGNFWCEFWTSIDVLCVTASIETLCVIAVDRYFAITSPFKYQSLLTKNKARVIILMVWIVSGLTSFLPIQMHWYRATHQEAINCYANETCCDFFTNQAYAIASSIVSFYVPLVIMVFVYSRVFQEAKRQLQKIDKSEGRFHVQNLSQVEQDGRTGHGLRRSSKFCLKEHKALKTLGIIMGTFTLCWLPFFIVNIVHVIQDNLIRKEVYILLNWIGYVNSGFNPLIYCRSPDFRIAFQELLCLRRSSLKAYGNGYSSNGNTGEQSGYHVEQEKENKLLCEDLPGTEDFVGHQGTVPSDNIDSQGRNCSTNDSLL

Consider `CNC(C)Cc1ccccc1OC` (configuration not stated) [Methoxyphenamine], for which the Kd is 0.98 nM. As for `CC1(C)[C@@H](O)CC[C@]2(C)[C@H]3C(=O)C=C4[C@@H]5C[C@@](C)(C(=O)NCCc6ccc(O)cc6)CC[C@]5(C)CC[C@@]4(C)[C@]3(C)CC[C@@H]12`, the equilibrium dissociation constant (Kd) was 7.5 nM.
